Assay results published in ChEMBL document CHEMBL1152268, “Discovery and SAR of novel 4-thiazolyl-2-phenylaminopyrimidines as potent inhibitors of spleen tyrosine kinase (SYK)” (Bioorg Med Chem Lett, 2008).
The source made the active and inactive calls. The calls are words filed in the database; no cut-off is given here.

What was measured:
[1] = target: Tyrosine-protein kinase SYK (Homo sapiens, UniProt P43405)
[2] = (§1) Metabolic stability in rat liver microsomes after 30 mins; type: ADME, Microsome; settings: liver microsomes, read-out: Stability
[3] = target: Cyclin-dependent kinase 2 (Homo sapiens, UniProt P24941); assay: Inhibition of CDK2
[4] = target: T1, Tyrosine-protein kinase ZAP-70 (Homo sapiens, UniProt P43403); assay: (§2) Inhibition of ZAP70
T1 sequence (P43403 whole entry): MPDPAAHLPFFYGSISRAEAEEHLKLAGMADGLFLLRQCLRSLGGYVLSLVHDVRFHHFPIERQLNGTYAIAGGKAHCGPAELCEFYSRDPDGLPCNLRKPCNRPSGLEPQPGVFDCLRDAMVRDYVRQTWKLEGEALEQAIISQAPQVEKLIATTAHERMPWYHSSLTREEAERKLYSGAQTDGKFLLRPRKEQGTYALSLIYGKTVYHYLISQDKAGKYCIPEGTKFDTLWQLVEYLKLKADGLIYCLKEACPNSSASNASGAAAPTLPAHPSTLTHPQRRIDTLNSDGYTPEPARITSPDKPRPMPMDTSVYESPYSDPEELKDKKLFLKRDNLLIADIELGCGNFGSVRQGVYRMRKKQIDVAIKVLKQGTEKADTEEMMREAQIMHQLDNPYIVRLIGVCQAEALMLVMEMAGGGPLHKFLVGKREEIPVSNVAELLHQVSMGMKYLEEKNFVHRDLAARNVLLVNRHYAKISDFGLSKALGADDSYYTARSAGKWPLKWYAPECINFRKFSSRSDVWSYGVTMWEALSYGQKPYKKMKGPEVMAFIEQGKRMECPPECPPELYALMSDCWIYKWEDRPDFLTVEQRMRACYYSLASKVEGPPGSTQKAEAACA

[5] = target: Proto-oncogene tyrosine-protein kinase Src (Homo sapiens, UniProt P12931); assay: Inhibition of SRC
Liver microsomes = assay: as §1; type: ADME, Microsome; settings: microsomes, 0.5 h
[6] = target: T2, Tyrosine-protein kinase ZAP-70 (Homo sapiens) (UniProt P43403); assay: as §2
T2 sequence (whole entry): T1 sequence (P43403 whole entry)

Sequence of Proto-oncogene tyrosine-protein kinase Src (P12931 2-536 limits assumed): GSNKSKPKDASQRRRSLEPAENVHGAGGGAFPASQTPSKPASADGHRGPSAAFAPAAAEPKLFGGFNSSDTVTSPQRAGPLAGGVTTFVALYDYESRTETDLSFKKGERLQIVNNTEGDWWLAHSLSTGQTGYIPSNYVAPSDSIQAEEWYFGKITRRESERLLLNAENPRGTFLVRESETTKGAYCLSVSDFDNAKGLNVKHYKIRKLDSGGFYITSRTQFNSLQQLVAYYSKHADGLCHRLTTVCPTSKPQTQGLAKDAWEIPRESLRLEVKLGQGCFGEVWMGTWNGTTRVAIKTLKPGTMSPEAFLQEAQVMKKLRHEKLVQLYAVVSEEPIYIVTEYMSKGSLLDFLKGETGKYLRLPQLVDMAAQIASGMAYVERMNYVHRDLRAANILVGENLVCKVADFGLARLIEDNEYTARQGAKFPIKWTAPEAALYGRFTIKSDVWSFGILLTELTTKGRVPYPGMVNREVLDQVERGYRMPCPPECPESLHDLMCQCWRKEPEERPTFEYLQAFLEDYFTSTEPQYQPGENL

SMILES | Ki [1] [µM] | remaining at 0.5 h [2] [%] | Ki [3] [µM] | Ki [4] [µM] | Ki [5] [µM] | Activity (Liver microsomes) | IC50 [1] [µM] | Activity [6] | Activity
c1ccc(Oc2cccc(Nc3nccc(-c4nccs4)n3)c2)cc1 | 0.63 | – | – | – | – | – | – | – | –
Cc1cc(C)cc(Nc2nccc(-c3nc(C)cs3)n2)c1 | 0.056 | – | 0.1 | 1.03 | 2.03 | 5% | – | – | –
OCc1csc(-c2ccnc(Nc3cc(O)cc(C(F)(F)F)c3)n2)n1 | 0.05 | 50 | 1.5 | 0.68 | 4 | – | – | – | –
Cc1cc(Nc2nccc(-c3nccs3)n2)cc(C(F)(F)F)c1 | 0.11 | – | > 5 | 0.891 | 1.36 | Not Active | – | – | –
NCCCNc1nc(-c2ccc(N3CCOCC3)cc2)cc2ccccc12 | – | – | – | – | – | – | 0.008 | – | –
Cc1cc(C)cc(Nc2nccc(-c3nc(C)c(C(=O)N[C@H](C)CO)s3)n2)c1 | 0.21 | – | > 3.33 | 1.5 | > 3.33 | – | – | – | –
Cc1ccc(C)c(Nc2nccc(-c3nccs3)n2)c1 | 1.82 | – | > 5 | – | 0.153 | Not Active | – | inactive | inactive
Cc1cccc(Nc2nccc(-c3nccs3)n2)c1 | 0.082 | – | 2.45 | 1.55 | 2.98 | Not Active | – | – | –
Cc1cc(C)cc(Nc2nccc(-c3nc(C)c(C(=O)N[C@@H](C)CO)s3)n2)c1 | – | – | > 3.33 | 0.24 | > 3.33 | – | – | – | –
Oc1cc(Nc2nccc(-c3nccs3)n2)cc(C(F)(F)F)c1 | 0.044 | 24 | 1.65 | 0.754 | 0.991 | – | – | – | –

Continued by falling Ki [1], values first:

Ki [1] [µM] | remaining at 0.5 h [2] [%] | Ki [3] [µM] | Ki [4] [µM] | Ki [5] [µM] | Activity (Liver microsomes) | IC50 [1] [µM] | Activity [6] | Activity | SMILES
0.033 | – | > 2.5 | 1 | 3.5 | Not Active | – | – | – | COc1cc(Nc2nccc(-c3nc(CO)cs3)n2)cc(C(F)(F)F)c1
0.032 | 65 | 2.27 | 0.56 | 3.5 | – | – | – | – | Cc1cc(C)cc(Nc2nccc(-c3nc(C)c(CCO)s3)n2)c1
0.028 | 54 | > 5 | 2.15 | 1.83 | – | – | – | – | COc1cc(Nc2nccc(-c3nccs3)n2)cc(C(F)(F)F)c1
0.026 | 68 | > 5 | 0.677 | 0.422 | – | – | – | – | OCCCOc1cc(Nc2nccc(-c3nccs3)n2)cc(C(F)(F)F)c1
0.023 | – | 1.1 | 0.41 | 0.348 | 15% | – | – | – | Cc1cc(C)cc(Nc2nccc(-c3ncc(C)s3)n2)c1
0.023 | – | > 2.5 | 1.14 | 3.7 | Not Active | – | – | – | COc1cc(Nc2nccc(-c3ncc(C)s3)n2)cc(C(F)(F)F)c1
0.022 | 80 | > 2.5 | 3.5 | 3.5 | – | – | – | – | Cc1cc(Nc2nccc(-c3nc(C)c(CCO)s3)n2)cc(C(F)(F)F)c1
0.014 | 12 | > 5 | 0.318 | 0.862 | – | – | – | – | COc1cc(Nc2nccc(-c3nccs3)n2)cc(OC)c1
0.01 | 35 | 2.4 | 0.45 | 2.23 | – | – | – | – | Cc1cc(C)cc(Nc2nccc(-c3nc(CO)cs3)n2)c1
0.01 | 64 | 1.5 | 0.75 | 1.8 | – | – | – | – | Cc1cc(Nc2nccc(-c3nc(CO)cs3)n2)cc(C(F)(F)F)c1
0.008 | 24 | > 5 | 0.419 | 1.06 | – | – | – | – | Cc1cc(C)cc(Nc2nccc(-c3nccs3)n2)c1
0.004 | 37 | > 2.5 | 0.27 | 2 | – | – | – | – | Cc1cc(C)cc(Nc2nccc(-c3ncc(CO)s3)n2)c1
